This note sets out measurements from the supplement of paper PMC6045584.

± gives the standard deviation of the averaged measurements.

Compound in one assay: C[C@]12CC[C@H](O)CC1=CC[C@@H]1[C@@H]2CC[C@]2(C)C(c3cccnc3)=CC[C@@H]12 [ABIRATERONE]
The assay can be described thus: surviving fraction relative to DMSO-only wells; higher = less growth inhibition. Particulars: exposure time: 5 days. Put shortly: (§1)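 Tumour cell lines in log phase were plated in 384-well plates at 250–500 cells per well, then, after 24 hours, exposed continuously for five days to inhibitors at 0.5, 1, 5, 10, 50, 100, 500 and 1000 nM. Viability came from CellTiter-Glo luminescence, and surviving fraction is that signal normalised to the median of DMSO-only wells. Plates were read after 10 minutes at room temperature, and each line, screened three times, was kept only when replicate Pearson r was >0.7 and median Z' was >0.3.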

Compound in the next assay: COc1cc2c(Oc3ccc(NC(=O)C4(C(=O)Nc5ccc(F)cc5)CC4)cc3F)ccnc2cc1OCCCN1CCOCC1 [FORETINIB]
The description is as above. Particulars: exposure time: 5 days. The gist of the method: as §1

Compound in another assay: O=C(c1cc(Cc2n[nH]c(=O)c3ccccc23)ccc1F)N1CCN(C(=O)C2CC2)CC1 [OLAPARIB]
The assay can be described thus: area under dose-response curve of surviving fraction (unscaled, Aref=0) (surviving fraction x log10(nM)); higher = more resistant. The following applies: exposure time: 5 days; dose range 0.5-1000 nM. Put shortly:
(§2)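 Tumour cell lines in 384-well plates were exposed to eight inhibitor concentrations, from 0.5 to 1000 nM, for five days, and viability was read by CellTiter-Glo luminescence in three screens per line. Signals were normalised to DMSO-only wells, and 3-parameter logistic regression in the drc R package fitted dose-response survival curves to the surviving fractions. Area under the curve is given as the unscaled activity area. That area is taken over log10 dose with Aref = 0.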

Compound in another assay: CNC(=O)c1cc(Oc2ccc(NC(=O)Nc3ccc(Cl)c(C(F)(F)F)c3)cc2)ccn1 [SORAFENIB]
Described as above. The following applies: exposure time: 5 days; dose range 0.5-1000 nM. The gist of the method: as §2

Compound in another assay: C[C@@H](Oc1cc(-c2cnn(C3CCNCC3)c2)cnc1N)c1c(Cl)ccc(F)c1Cl [CRIZOTINIB]
The assay is described as above. Particulars: exposure time: 5 days; dose range 0.5-1000 nM. Put shortly:
as §2

Compound in assay [1]: COc1cc2ncnc(Nc3ccc(F)c(Cl)c3)c2cc1NC(=O)/C=C/CN1CCCCC1
The assay is described as above. Particulars: exposure time: 5 days; dose range 0.5-1000 nM. Put shortly:
as §2

Take HS578T BREAST: the surviving fraction with ABIRATERONE (0.5 nM) came to 1.06 ± 0.16; with ABIRATERONE (1 nM), 0.858 ± 0.12; in the assay with ABIRATERONE (5 nM), 0.945 ± 0.12; with ABIRATERONE (10 nM), 0.924 ± 0.2; in the assay with ABIRATERONE (50 nM), 1.04 ± 0.091; with ABIRATERONE (100 nM) it was 0.996 ± 0.051. Besides, the surviving fraction came to 0.985 ± 0.065 with ABIRATERONE (500 nM); 0.94 ± 0.037 with ABIRATERONE (1000 nM); 1.01 ± 0.084 with FORETINIB (0.5 nM); 1.09 ± 0.079 in the assay with FORETINIB (1 nM); 1.2 ± 0.19 in the assay with FORETINIB (5 nM); 1.18 ± 0.038 with FORETINIB (10 nM). Further, the surviving fraction with FORETINIB (50 nM) stood at 1.16 ± 0.17; in the assay with FORETINIB (100 nM) it was 1.12 ± 0.21; with FORETINIB (500 nM), 0.655 ± 0.088; with FORETINIB (1000 nM), 0.585 ± 0.039. In addition, the figures for the “area under dose-response curve” value in the assay with OLAPARIB and with SORAFENIB were 2.79 and 2.64, respectively.
In the case of HS57T BREAST, the surviving fraction turned out to be 1.06 ± 0.023 with ABIRATERONE (0.5 nM); 1.16 ± 0.059 with ABIRATERONE (1 nM); 1.12 ± 0.038 with ABIRATERONE (5 nM); 1.1 ± 0.03 in the assay with ABIRATERONE (10 nM); 1.24 ± 0.06 in the assay with ABIRATERONE (50 nM); 1.17 ± 0.071 in the assay with ABIRATERONE (100 nM). Also, the surviving fraction was 1.08 ± 0.031 in the assay with ABIRATERONE (500 nM); 1.04 ± 0.1 with ABIRATERONE (1000 nM); 1.05 ± 0.066 in the assay with FORETINIB (0.5 nM); 1.09 ± 0.08 in the assay with FORETINIB (1 nM); 1.15 ± 0.03 with FORETINIB (5 nM); 1.07 ± 0.045 with FORETINIB (10 nM). Further, the surviving fraction turned out to be 1.06 ± 0.06 in the assay with FORETINIB (50 nM), 1.02 ± 0.083 with FORETINIB (100 nM), 0.515 ± 0.039 with FORETINIB (500 nM) and 0.47 ± 0.024 with FORETINIB (1000 nM).
For the test system HMT3552 BREAST, the surviving fraction with ABIRATERONE (0.5 nM) stood at 1.05; in the assay with ABIRATERONE (1 nM) it was 1.02; with ABIRATERONE (5 nM), 1.01; with ABIRATERONE (10 nM), 1.09; with ABIRATERONE (50 nM) it was 1.08; with ABIRATERONE (100 nM), 1.07. The surviving fraction is 1.32 with ABIRATERONE (500 nM); 1.24 in the assay with ABIRATERONE (1000 nM); 1.02 ± 0.069 with FORETINIB (0.5 nM); 1.03 ± 0.05 with FORETINIB (1 nM); 1.02 ± 0.017 with FORETINIB (5 nM); 0.928 ± 0.12 with FORETINIB (10 nM). Further, the surviving fraction with FORETINIB (50 nM) stood at 0.955 ± 0.058; in the assay with FORETINIB (100 nM) it was 0.971 ± 0.013; with FORETINIB (500 nM), 0.599 ± 0.034; with FORETINIB (1000 nM) it was 0.114 ± 0.0027. Besides, the “area under dose-response curve” value with CRIZOTINIB stood at 3.05.
Turning to HCC70 BREAST, the surviving fraction with ABIRATERONE (0.5 nM) came to 1.1 ± 0.069; with ABIRATERONE (1 nM) it was 1.02 ± 0.088; with ABIRATERONE (5 nM) it was 1.09 ± 0.026; in the assay with ABIRATERONE (10 nM) it was 1.11 ± 0.055; with ABIRATERONE (50 nM), 1.15 ± 0.13; in the assay with ABIRATERONE (100 nM), 1.14 ± 0.017. In addition, the surviving fraction with ABIRATERONE (500 nM) was determined as 1.03 ± 0.076; in the assay with ABIRATERONE (1000 nM) it was 0.949 ± 0.098; in the assay with FORETINIB (0.5 nM), 1.08 ± 0.04; with FORETINIB (1 nM), 1.13 ± 0.023; in the assay with FORETINIB (5 nM), 1.13 ± 0.043; with FORETINIB (10 nM), 1.11 ± 0.046. Further, the surviving fraction in the assay with FORETINIB (50 nM) is 1.17 ± 0.066; with FORETINIB (100 nM), 1.2 ± 0.044; in the assay with FORETINIB (500 nM), 1.1 ± 0.1; with FORETINIB (1000 nM), 0.718 ± 0.16. Also, the “area under dose-response curve” value with CRIZOTINIB was determined as 3.69; with OLAPARIB, 3.59; in the assay with SORAFENIB, 3.81; in assay [1] it was 3.17.
HCC38 BREAST: the surviving fraction with ABIRATERONE (0.5 nM) was found to be 1.21 ± 0.22; with ABIRATERONE (1 nM), 1.24 ± 0.14; in the assay with ABIRATERONE (5 nM) it was 1.22 ± 0.31; with ABIRATERONE (10 nM) it was 1.29 ± 0.38; in the assay with ABIRATERONE (50 nM) it was 1.18 ± 0.41; with ABIRATERONE (100 nM) it was 1.32 ± 0.18. Also, the surviving fraction with ABIRATERONE (500 nM) was 1.16 ± 0.12; in the assay with ABIRATERONE (1000 nM) it was 1 ± 0.14; in the assay with FORETINIB (0.5 nM) it was 1.05 ± 0.18; in the assay with FORETINIB (1 nM) it was 1.01 ± 0.34; in the assay with FORETINIB (5 nM) it was 0.885 ± 0.2; with FORETINIB (10 nM) it was 1.11 ± 0.24. Besides, the surviving fraction with FORETINIB (50 nM) is 1.03 ± 0.41; in the assay with FORETINIB (100 nM), 0.901 ± 0.15; in the assay with FORETINIB (500 nM) it was 0.521 ± 0.077; in the assay with FORETINIB (1000 nM), 0.428 ± 0.12. For the same test system, the “area under dose-response curve” value in the assay with OLAPARIB came out at 2.57; with SORAFENIB, 4.12.
As for G292 BONE, the surviving fraction came to 1.02 ± 0.028 with ABIRATERONE (0.5 nM); 0.994 ± 0.03 with ABIRATERONE (1 nM); 1.06 ± 0.037 with ABIRATERONE (5 nM); 1.04 ± 0.026 in the assay with ABIRATERONE (10 nM); 1.05 ± 0.038 with ABIRATERONE (50 nM); 1.05 ± 0.018 with ABIRATERONE (100 nM). Besides, the surviving fraction with ABIRATERONE (500 nM) was 1.03 ± 0.034; with ABIRATERONE (1000 nM), 1.01 ± 0.029; in the assay with FORETINIB (0.5 nM), 1.01 ± 0.049; with FORETINIB (1 nM), 0.963 ± 0.051; in the assay with FORETINIB (5 nM) it was 1.04 ± 0.015; with FORETINIB (10 nM) it was 1.02 ± 0.046. Moreover, the surviving fraction in the assay with FORETINIB (50 nM) is 0.905 ± 0.03; with FORETINIB (100 nM), 0.839 ± 0.023; in the assay with FORETINIB (500 nM) it was 0.351 ± 0.018; in the assay with FORETINIB (1000 nM), 0.171 ± 0.02. Moreover, the “area under dose-response curve” value in the assay with CRIZOTINIB is 3; with OLAPARIB it was 3.17; with SORAFENIB, 3.26; in assay [1], 3.03.
Take HMLE3 BREAST: the surviving fraction with ABIRATERONE (0.5 nM) came out at 0.965 ± 0.017; with ABIRATERONE (1 nM), 1.01 ± 0.04; with ABIRATERONE (5 nM) it was 1.04 ± 0.063; with ABIRATERONE (10 nM), 1.04 ± 0.051; in the assay with ABIRATERONE (50 nM) it was 1.12 ± 0.079; with ABIRATERONE (100 nM), 1.02 ± 0.084. Besides, the surviving fraction in the assay with ABIRATERONE (500 nM) was found to be 1.02 ± 0.063; in the assay with ABIRATERONE (1000 nM), 1.04 ± 0.04; with FORETINIB (0.5 nM), 1.08 ± 0.031; in the assay with FORETINIB (1 nM), 1.15 ± 0.075; with FORETINIB (5 nM) it was 1.11 ± 0.023; with FORETINIB (10 nM), 1.07 ± 0.011. Moreover, the surviving fraction with FORETINIB (50 nM) turned out to be 0.913 ± 0.1; with FORETINIB (100 nM) it was 0.86 ± 0.054; with FORETINIB (500 nM), 0.558 ± 0.076; in the assay with FORETINIB (1000 nM), 0.168 ± 0.023. Further, the “area under dose-response curve” value with OLAPARIB stood at 3.22; in assay [1], 3.01.
